The assay deals with human PD-L1 / Human PD-1 (Homo sapiens (Human), UniProt Q9NZQ7). Briefly: Enzyme-Linked Immunosorbent Assay (ELISA), PD-1/PD-L1 binding. Conditions: plates coated with human PD-L1; biotinylated human PD-1; absorbance at 450 nm. As for the experimental part: 96 Well plates were coated with 1 μg/mL of human PD-L1 (obtained from R&D) in PBS overnight at 4° C. The wells were then blocked with 2% BSA in PBS (W/V) with 0.05% TWEEN-20 for 1 hour at 37° C. The plates were washed 3 times with PBS/0.05% TWEEN-20 and the compounds were serial diluted (1:5) in dilution medium and added to the ELISA plates. Human PD-1 and biotin 0.3 μg/mL (ACRO Biosystems) were added and incubated for 1 hour at 37° C. then washed 3 times with PBS/0.05% TWEEN-20. A second block was performed with 2% BSA in PBS (W/V)/0.05% TWEEN-20 for 10 min at 37° C. and the plates were washed 3 times with PBS/0.05% TWEEN-20. Streptavidin-HRP was added for 1 hour at 37° C. then the plates were washed 3 times with PBS/0.05% TWEEN-20. TMB substrate was added and reacted for 20 min at 37° C. A stop solution (2 N aqueous H2SO4) was added. The absorbance was read at 450 nm using a micro-plate spectrophotometer. The results are shown in Table 1: IC50 values are provided as follows: from 100 up to 10,000 nM (+); less than 100 nM (++).
Sequence of human PD-L1 / Human PD-1 (Q9NZQ7 19-239): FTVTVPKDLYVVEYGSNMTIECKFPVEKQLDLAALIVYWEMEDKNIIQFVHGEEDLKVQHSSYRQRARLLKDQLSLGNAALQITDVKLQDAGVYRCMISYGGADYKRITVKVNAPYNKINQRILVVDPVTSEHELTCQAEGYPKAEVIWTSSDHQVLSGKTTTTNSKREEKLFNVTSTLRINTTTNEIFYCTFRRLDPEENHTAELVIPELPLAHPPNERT
For orientation: ELISA stands for enzyme-linked immunosorbent assay.
`COC(=O)CCCN(C)Cc1cc(Cl)c(O[C@H]2CCc3c(-c4cccc5c4CC[C@@H]5Oc4cc(OCc5cncc(C#N)c5)c(CN(C)CCCC(=O)OC)cc4Cl)cccc32)cc1OCc1cncc(C#N)c1` [Compound 1.027] showed an IC50 below 0.1 µM.

Compound `Cc1c(COc2ccc(CN[C@@](C)(CO)C(=O)O)cc2F)cccc1-c1cccc2c1CCC2Oc1ccc(CN[C@@](C)(CO)C(=O)O)cc1F` (stereo partly drawn) [Compound 1.010] came in with an IC50 of 0.1 to 10 µM.

`CCOc1cc(O[C@H]2CCc3c(-c4cccc5c4CC[C@@H]5Oc4cc(OCC)c(CN5CC6(CC(O)C6)C5)cc4Cl)cccc32)c(Cl)cc1CN1CC2(CC(O)C2)C1` [Compound 1.050] came in with an IC50 below 0.1 µM.

Consider `CCOc1cc(O[C@H]2CCc3c(-c4cccc5c4CC[C@@H]5Oc4cc(OCC)c(CN[C@@H](CCO)C(=O)O)cc4Cl)cccc32)c(Cl)cc1CN[C@@H](CCO)C(=O)O` [Compound 1.047], for which the IC50 is below 0.1 µM.

As for `CCOc1cc(O[C@H]2CCc3c(-c4cccc5c4CC[C@@H]5Oc4cc(OCC)c(CN[C@H](C(=O)NS(C)(=O)=O)[C@@H](C)O)cc4Cl)cccc32)c(Cl)cc1CN[C@H](C(=O)NS(C)(=O)=O)[C@@H](C)O` [Compound 1.030], the half-inhibitory concentration (IC50) is below 0.1 µM.

On to `CCOc1cc(O[C@H]2CCc3c(-c4cccc(COc5ccc(CN(C)C)cc5)c4C)cccc32)c(Cl)cc1CN[C@@](C)(CO)C(=O)O` [Compound 1.037], for which the IC50 was below 0.1 µM.

Consider `C[C@@H](O)[C@H](NCc1cc(Cl)c(O[C@H]2CCc3c(-c4cccc5c4CC[C@@H]5Oc4cc(OCc5cncc(C#N)c5)c(CN[C@H](C(=O)O)[C@@H](C)O)cc4Cl)cccc32)cc1OCc1cncc(C#N)c1)C(=O)O` [Compound 1.039], for which the IC50 was below 0.1 µM.

Compound `CCOc1cc(O[C@H]2CCc3c(-c4cccc5c4CC[C@@H]5Oc4cc(OCC)c(CN(C)[C@@](C)(CO)C(=O)O)cc4Cl)cccc32)c(Cl)cc1CN(C)C[C@@H]1CCC(=O)N1` [Compound 1.006] gave an IC50 below 0.1 µM.

`Cc1cc(CN[C@@](C)(CO)C(=O)O)ccc1OCc1cccc(-c2cccc3c2CCC3Oc2ccc(CN[C@@](C)(CO)C(=O)O)cc2C)c1C` (stereo partly drawn) [Compound 1.008] had an IC50 below 0.1 µM.

A word on the IC50: it is the concentration that inhibits the measured activity by half. Lower therefore signals higher potency.

The record behind these values is US11872217B2, “Indanes as PD-L1 inhibitors” (CHEMOCENTRYX, INC., priority 2019, dated 2024).
